# From paper PMC6272905, “In Vitro and In Vivo Characterization of Selected Fluorine-18 Labeled Radioligands for PET Imaging of the Dopamine D3 Receptor” (Molecules, 2016)
# Several values for one entry are separate records, joined by “and”; a condition that tells them apart may be missing. Equal entries are not always repeated.
# Assays:
# [1] = design: method as in PMID 24339325, PMID 26707848; conditions: experimental, pH 7.4, n = 6, previously reported; cited from earlier work
# P-gp [2] = biological target: T1, P-gp (Homo sapiens, UniProt P08183); assay: P-gp inhibition assay (cellular uptake) in EA.hy926 cells; type: cell-based
# T1 construct: endogenous in cells; host or cells: Caco-2
# Procedure: (§1) EA.hy926 cells were seeded in culture medium at confluency the day prior to experiment or in case of the Caco-2 cells two days prior to experiment in 24-multiwell plates (Greiner Bio-One International GmbH, Kremsmünster, Austria). On the day of the experiment the culture medium was removed and the cells were washed once with PBS (500 µL). Culture medium supplemented with cyclosporine-A (5 µM for EA.hy926 and 10 µM for Caco-2) was added and the cells were incubated at 37 °C for 30 min. Afterwards 1 MBq of [^18F]2b was added to each well and incubated for further 30, 60 and 90 min. After incubation cells were washed with ice cold PBS (500 µL) and lysated with 0.1 M NaOH. The medium and lysates were analysed in the gamma-counter. To identify cyclosporine-A induced accumulation the experiment was also performed using culture medium lacking cyclosporine-A. As positive control the experiment was performed with ^99mTc-MIBI (100 kBq/well), a known P-gp substrate. To determine the lowermost concentration with which a maximum effect was obtained, cyclosporine-A was applied in a range of 0–50 µM and observed in a time frame of 30–120 min for both cell lines.
# [3] = Free fraction in rat plasma; type: in vitro ADME; conditions: rat plasma, Figure 3b
# Procedure: (§2) The free fraction in vitro was determined by adding the respective radioligand (100 kBq) to plasma or CSF (200 µL) and mixed vigorously. Aliquots of 20–50 µL were transferred to size exclusion chromatography columns (MicroSpin G-50; GE Healthcare GmbH, Solingen, Germany, centrifuged for two min at 2000 rpm, and the radioactivity in the filtrate and in the resin were measured in the gamma-counter. Three independent experiments were performed in triplicates.
# For the ex vivo determination of the radioligands binding to proteins the respective tracer (15 MBq) was administered intravenous to male Sprague Dawley rats (200–250 g) under isoflurane anesthesia. Blood samples were drawn intravenous after 5, 15 and 30 min and centrifuged for 5 min at 2000 rpm in heparin-coated vials. An aliquot of 50 µL was taken from the supernatant and added to an equal volume of water (10% TFA). The protein precipitate was centrifuged off for 5 min at 25,000 rpm and analyzed together with a further 50 µL aliquot of the supernatant in the gamma-counter. Two independent experiments were performed.
# P-gp [4] = biological target: T1, P-gp; assay: Bi-directional transport assay in Caco-2 cells; type: cell-based
# Procedure: The procedure of initially adding equal concentrations to both compartments was adapted from the literature. Caco-2 cells were seeded near confluency in thin-cert inserts (translucent, Ø 0.4 µm, 24 well PET membrane, Greiner) and placed in multiwell plates (CELLSTAR 24 Multiwell plates, Greiner). The culture medium basolateral (multiwell) and apical (insert) was renewed every 2–3 days. Approximately 12 days after seeding the Caco-2 cells reached their highest trans-epithelial resistance, which was monitored every four days and on day of the experiment. An immunocytochemistry was also performed with an additional insert (translucent) to confirm stable formation of tight-junctions and cell monolayer. Culture medium was then removed and the cells were washed with PBS. Culture medium supplemented with cyclosporin (10 µM) was added to both compartments and the cells were incubated at 37 °C for 30 min. Afterwards 1 MBq [^18F]2b was added to each compartment. An aliquot was taken from each compartment after 0, 30, 60 and 90 min and analyzed in the gamma-counter. To identify cyclosporine-A induced accumulation the experiment was also performed using culture medium lacking cyclosporine-A. As positive control the experiment was performed with ^99mTc-MIBI (100 kBq/ compartment).
# D3 receptor in rat brain = biological target: T2, D3 receptor in rat brain (Rattus norvegicus, UniProt P19020); assay: Saturation binding assay on rat brain sections; conditions: for Bmax: rat brain sections, n = 4
# T2 construct: from tissue; host or cells: brain cryosections (12 µm) of male Wistar rats
# [5] = design: method as in PMID 24339325, PMID 26707848; conditions: over 120 min, previously reported; cited from earlier work
# P-gp [6] = biological target: T1, P-gp; assay: P-gp inhibition assay (cellular uptake) in Caco-2 cells; type: cell-based
# Procedure: as §1
# [7] = Binding to proteins in human plasma in vitro; type: in vitro ADME; conditions: human vs rat plasma
# Procedure: as §2
# D3 receptor = conditions: cited from earlier work
# dopamine D3 receptor = assay: Ex vivo autoradiography of rat brain sections; type: in vivo
# Procedure: Male Sprague Dawley rats (250–300 g) were injected with 20 MBq of [^18F]2b intra-venous under isoflurane (4%) anesthesia. For blocking studies BP897 (1 mg/kg) was administerd 30 min prior to radioligand injection. Rats were sacrificed by decapitation 30 min post radioligand injection and brains were removed and frozen in cooled hexane at −70 °C. Coronal and horizontal brain sections (12 µm) were cut on a cryostat microtome (HM550, Microm) and thaw-mounted on covered glass slides (Histobond®). The glass slides were placed on a phosphor screen (Fujitsu) over night. The screens were analyzed with a DUERR Medical HD-CR 35 Bio (Raytest) and evaluated using the software AIDA image analyzer (Raytest). Afterwards the sections were HE stained and ascribed to figures in the rat brain atlas. Binding in the regions of interest were evaluated as ratio of the activity in the region of interest through background activity. Binding in the cerebral matter of the respective sections was defined as background activity.
# [8] = Caco-2, absence of cyclosporin-A, up to 90 min
# [9] = lateral ventricle, coronal section (Interaural 4.70, Bregma −4.30)
# [10] = third ventricle, horizontal section (Interaural 5.90, Bregma −4.10)
# T1 sequence (P08183 whole entry): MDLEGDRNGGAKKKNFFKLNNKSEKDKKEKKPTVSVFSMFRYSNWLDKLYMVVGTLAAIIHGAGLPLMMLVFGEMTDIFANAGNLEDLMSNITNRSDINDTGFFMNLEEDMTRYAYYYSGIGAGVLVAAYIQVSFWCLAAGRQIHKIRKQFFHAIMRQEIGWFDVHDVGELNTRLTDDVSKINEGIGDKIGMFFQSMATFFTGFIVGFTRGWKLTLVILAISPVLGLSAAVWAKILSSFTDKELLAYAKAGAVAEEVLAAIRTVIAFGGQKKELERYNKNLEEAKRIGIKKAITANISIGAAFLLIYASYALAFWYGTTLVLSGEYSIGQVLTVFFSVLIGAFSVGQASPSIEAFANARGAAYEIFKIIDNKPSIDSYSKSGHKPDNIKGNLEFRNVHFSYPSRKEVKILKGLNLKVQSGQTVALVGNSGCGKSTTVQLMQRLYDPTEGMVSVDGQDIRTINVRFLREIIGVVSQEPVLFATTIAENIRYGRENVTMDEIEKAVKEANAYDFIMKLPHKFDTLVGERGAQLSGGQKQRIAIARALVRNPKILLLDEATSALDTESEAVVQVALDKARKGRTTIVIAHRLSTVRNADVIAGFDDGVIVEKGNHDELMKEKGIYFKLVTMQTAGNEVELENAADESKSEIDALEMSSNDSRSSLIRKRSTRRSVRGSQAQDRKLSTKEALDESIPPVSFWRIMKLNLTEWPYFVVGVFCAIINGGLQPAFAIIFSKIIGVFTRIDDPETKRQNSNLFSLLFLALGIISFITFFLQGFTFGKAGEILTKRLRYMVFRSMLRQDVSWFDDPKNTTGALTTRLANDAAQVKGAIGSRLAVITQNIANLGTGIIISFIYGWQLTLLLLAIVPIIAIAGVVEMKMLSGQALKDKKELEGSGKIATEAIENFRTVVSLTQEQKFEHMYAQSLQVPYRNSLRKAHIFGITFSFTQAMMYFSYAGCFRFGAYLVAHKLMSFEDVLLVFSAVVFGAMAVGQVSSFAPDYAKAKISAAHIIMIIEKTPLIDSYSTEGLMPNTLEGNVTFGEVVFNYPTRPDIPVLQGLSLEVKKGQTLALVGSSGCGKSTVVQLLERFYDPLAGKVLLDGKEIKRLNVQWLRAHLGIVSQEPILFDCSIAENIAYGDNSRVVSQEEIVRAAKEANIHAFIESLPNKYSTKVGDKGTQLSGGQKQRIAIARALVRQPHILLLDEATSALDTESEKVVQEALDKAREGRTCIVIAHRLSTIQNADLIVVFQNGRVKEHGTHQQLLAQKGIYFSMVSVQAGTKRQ
# T2 sequence (P19020 whole entry): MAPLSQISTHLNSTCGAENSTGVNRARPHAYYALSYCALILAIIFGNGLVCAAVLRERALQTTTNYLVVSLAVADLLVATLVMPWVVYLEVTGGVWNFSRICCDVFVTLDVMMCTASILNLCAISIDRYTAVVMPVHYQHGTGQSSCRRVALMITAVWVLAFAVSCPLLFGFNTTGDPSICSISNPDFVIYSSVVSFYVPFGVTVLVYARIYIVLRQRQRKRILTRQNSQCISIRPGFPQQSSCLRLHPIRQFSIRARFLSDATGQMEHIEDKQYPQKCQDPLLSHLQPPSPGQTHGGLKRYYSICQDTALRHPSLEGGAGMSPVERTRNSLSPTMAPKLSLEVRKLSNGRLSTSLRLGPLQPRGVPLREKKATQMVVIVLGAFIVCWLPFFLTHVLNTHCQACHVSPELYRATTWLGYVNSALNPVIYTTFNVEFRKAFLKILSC
structure (smiles),measurement,setting,value
COc1ccccc1N1CCN(CCCCNC(=O)/N=N/c2ccc([18F])cc2)CC1 [[^18F]2b],Log D7.4,[1],2.10 ± 0.10
same,percentage inside the cells,P-gp [2],5%
same,influence of cyclosporin-A on cellular uptake,P-gp [2]; with vs without cyclosporin-A,did not increase the uptake
same,free radioligand in rat plasma,[3],80%
same,"concentration in the apical compartment, % of the initial concentration",P-gp [4]; [8],90%
same,"concentration in the basolateral compartment, % of the initial concentration",P-gp [4]; [8],100%
same,concentration in the basolateral compartment,"P-gp [4]; Caco-2, presence of cyclosporin-A",stayed nearly constant
same,"concentration in the apical compartment, % of the initial concentration","P-gp [4]; Caco-2, presence of cyclosporin-A (^99mTc-MIBI after 60 and 90 min; [^18F]2b after 30 min)",80%
same,P-gp substrate,P-gp [4]; conclusion from inhibition and transport assays,no P-gp substrate
same,Kd,D3 receptor in rat brain; all three regions,~100 pM
same,Kd,D3 receptor in rat brain; caudate putamen,80 ± 60 pM
same,Bmax,D3 receptor in rat brain; caudate putamen (striatum),16.58 pmol/g and 16.58 ± 1.63 pmol/g
same,Kd,D3 receptor in rat brain; islands of calleja,100 ± 10 pM
same,Bmax,D3 receptor in rat brain; islands of calleja,20.38 pmol/g and 20.38 ± 2.67 pmol/g
same,Kd,D3 receptor in rat brain; nucleus accumbens,110 ± 70 pM
same,Bmax,D3 receptor in rat brain; nucleus accumbens,19.54 pmol/g and 19.54 ± 1.85 pmol/g
same,decomposition in human serum,[5],no decomposition was observed
same,percentage inside the cells,P-gp [6],10%
same,influence of cyclosporin-A on cellular uptake,P-gp [6]; with vs without cyclosporin-A,did not increase the uptake
same,binding to human plasma higher than in rat plasma,[7],20%–30%
same,Ki,D3 receptor,3500 pM
same,ratio ROI/background,"dopamine D3 receptor; lateral and third ventricle, section (Interaural 5.70, Bregma −3.30)",22
same,displacement by BP897,"dopamine D3 receptor; lateral and third ventricle, sections (Interaural 10.60, Bregma 1.60) and (Interaural 7.70, Bregma −1.30)",no displacement
same,ratio ROI/background,"dopamine D3 receptor; lateral and third ventricle, sections (Interaural 10.60, Bregma 1.60) and (Interaural 7.70, Bregma −1.30), 30 min p.i.",~15
same,displacement with BP897,dopamine D3 receptor; [9],60%
same,ratio ROI/background,dopamine D3 receptor; [9],~30
same,displacement by BP897,"dopamine D3 receptor; section (Interaural 5.70, Bregma −3.30)",40%–50%
same,displacement through BP897,dopamine D3 receptor; [10],50%
same,ratio ROI/background,dopamine D3 receptor; [10],32
